For assay [1], the target named is Dual specificity tyrosine-phosphorylation-regulated kinase 1A (Homo sapiens, UniProt Q13627). As to the kind of experiment: Selectivity interaction (Kinase panel (Z-LYTE Assay)) EUB0001632a DYRK1A. The note with it: at 10 µM.
For assay [2], the target named is Insulin receptor-related protein (Homo sapiens) (UniProt P14616). Put plainly: Selectivity interaction (Kinase panel (Z-LYTE Assay)) EUB0001632a INSRR. As to conditions: at 10 µM.
For assay [3], the target named is Receptor-interacting serine/threonine-protein kinase 2 (Homo sapiens, UniProt O43353). Put plainly: Selectivity interaction (KinomeScan (DiscoverX)) EUB0000595a RIPK2. The note with it: at 10 µM.
In assay [4] the target is 5'-AMP-activated protein kinase catalytic subunit alpha-1 (Homo sapiens, UniProt Q13131). As to the kind of experiment: Selectivity interaction (ActivX KiNativ screen (ex vivo kinase selectivity in human PBMCs)) EUB0001619a PRKAA1. It counts as cell-based. The note with it: PBMC, at 1 µM.
The target of assay [5] is Serine/threonine-protein kinase MRCK beta (Homo sapiens) (UniProt Q9Y5S2). As to conditions: at 10 µM.
Assay [6] has as its target Serine/threonine-protein kinase Nek7 (Homo sapiens) (UniProt Q8TDX7). As to conditions: at 10 µM.
The target in assay [7] is Mitogen-activated protein kinase kinase kinase kinase 1 (Homo sapiens) (UniProt Q92918). Put plainly: Selectivity interaction (ActivX KiNativ screen (kinase selectivity in THP-1 cell lysates)) EUB0000639a MAP4K1. It counts as subcellular. As to conditions: lysate, at 0.2 µM.
Assay [8] concerns the target T1, cGMP-dependent protein kinase 1 (Homo sapiens) (UniProt Q13976).
T1 sequence (whole entry): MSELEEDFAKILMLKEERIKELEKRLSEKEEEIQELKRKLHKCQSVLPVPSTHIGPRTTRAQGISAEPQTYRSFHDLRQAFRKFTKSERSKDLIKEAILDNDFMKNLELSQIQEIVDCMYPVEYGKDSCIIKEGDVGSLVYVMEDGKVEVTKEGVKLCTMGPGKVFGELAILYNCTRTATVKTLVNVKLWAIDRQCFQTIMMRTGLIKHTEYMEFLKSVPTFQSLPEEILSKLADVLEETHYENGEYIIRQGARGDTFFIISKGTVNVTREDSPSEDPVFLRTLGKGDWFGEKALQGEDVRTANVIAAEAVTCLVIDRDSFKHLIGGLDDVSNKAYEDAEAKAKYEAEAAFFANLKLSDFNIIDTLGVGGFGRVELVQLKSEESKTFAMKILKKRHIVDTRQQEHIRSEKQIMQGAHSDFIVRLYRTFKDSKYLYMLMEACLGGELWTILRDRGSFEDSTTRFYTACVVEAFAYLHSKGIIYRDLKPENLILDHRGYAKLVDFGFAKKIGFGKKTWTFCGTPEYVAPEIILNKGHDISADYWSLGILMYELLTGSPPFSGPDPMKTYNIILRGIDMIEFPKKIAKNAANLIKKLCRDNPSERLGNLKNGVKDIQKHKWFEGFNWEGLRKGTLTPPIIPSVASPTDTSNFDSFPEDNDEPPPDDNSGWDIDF
Put plainly: Selectivity interaction (Kinase panel (Invitrogen)) EUB0000639a PRKG1. As to conditions: at 200 nM.

The target in assay [9] is T2, Mitogen-activated protein kinase 12 (Homo sapiens) (UniProt P53778).
T2 sequence (whole entry): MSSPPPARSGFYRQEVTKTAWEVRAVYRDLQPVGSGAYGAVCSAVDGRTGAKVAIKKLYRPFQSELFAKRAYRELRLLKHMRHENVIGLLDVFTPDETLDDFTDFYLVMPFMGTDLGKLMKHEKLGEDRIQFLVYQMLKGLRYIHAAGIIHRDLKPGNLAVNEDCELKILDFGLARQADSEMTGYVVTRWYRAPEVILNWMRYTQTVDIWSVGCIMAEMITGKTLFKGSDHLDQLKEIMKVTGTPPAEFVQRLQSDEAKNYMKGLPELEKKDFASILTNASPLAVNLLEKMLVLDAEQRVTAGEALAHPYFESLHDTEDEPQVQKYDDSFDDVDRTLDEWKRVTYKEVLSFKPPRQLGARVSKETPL
As to the kind of experiment: Selectivity interaction (ProQinase) EUB0000171b MAPK12.

For assay [10], the target named is T3, Histone-lysine N-methyltransferase SUV39H1 (Homo sapiens) (UniProt O43463).
T3 sequence (whole entry): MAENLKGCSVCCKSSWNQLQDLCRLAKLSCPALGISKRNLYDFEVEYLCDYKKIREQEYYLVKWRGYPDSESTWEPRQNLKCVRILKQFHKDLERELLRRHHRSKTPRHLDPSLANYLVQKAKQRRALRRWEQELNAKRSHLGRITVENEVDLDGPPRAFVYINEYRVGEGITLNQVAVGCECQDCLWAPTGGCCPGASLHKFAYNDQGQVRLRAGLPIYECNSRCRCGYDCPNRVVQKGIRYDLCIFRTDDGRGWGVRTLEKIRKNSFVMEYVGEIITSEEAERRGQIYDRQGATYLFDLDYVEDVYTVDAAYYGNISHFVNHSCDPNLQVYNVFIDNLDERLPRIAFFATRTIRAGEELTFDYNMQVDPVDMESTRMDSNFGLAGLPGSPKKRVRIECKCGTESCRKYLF
As to the kind of experiment: Selectivity interaction (Methyltransferase screen (radiometric assays, panel of 8 PRMTs, 21 protein lysine methyltransferases, 3 DNA methyltransferases, and one RNA methyltransferase)) EUB0000271b SUV39H1.

In assay [11] the target is High affinity nerve growth factor receptor (Homo sapiens, UniProt P04629). Put plainly: Selectivity interaction (KinomeScan (DiscoverX)) EUB0001079a NTRK1. The note with it: at 1 µM.
Assay [12] addresses T4, Dual specificity mitogen-activated protein kinase kinase 4 (Homo sapiens) (UniProt P45985).
T4 sequence (whole entry): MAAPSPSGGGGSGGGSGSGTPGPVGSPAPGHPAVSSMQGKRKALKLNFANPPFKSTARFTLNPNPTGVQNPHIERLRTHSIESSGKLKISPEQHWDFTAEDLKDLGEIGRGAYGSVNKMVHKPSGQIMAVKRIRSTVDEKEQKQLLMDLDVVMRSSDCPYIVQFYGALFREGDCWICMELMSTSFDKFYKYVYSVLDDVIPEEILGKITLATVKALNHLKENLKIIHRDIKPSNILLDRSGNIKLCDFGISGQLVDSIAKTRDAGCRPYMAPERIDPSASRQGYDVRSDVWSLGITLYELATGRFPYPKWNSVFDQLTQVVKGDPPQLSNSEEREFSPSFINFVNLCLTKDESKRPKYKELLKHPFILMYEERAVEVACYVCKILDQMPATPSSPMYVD
Put plainly: Selectivity interaction (Kinase panel (KiNativ target engagement assay in Jurkat cells)) EUB0001635a MAP2K4. It counts as cell-based. As to conditions: at 1 µM.

Results on nine molecules are retold here after ChEMBL document CHEMBL5465560, “Selectivity Literature for EUbOPEN Chemogenomic Library” (2024).

Sequence of High affinity nerve growth factor receptor (P04629 33-796 limits assumed): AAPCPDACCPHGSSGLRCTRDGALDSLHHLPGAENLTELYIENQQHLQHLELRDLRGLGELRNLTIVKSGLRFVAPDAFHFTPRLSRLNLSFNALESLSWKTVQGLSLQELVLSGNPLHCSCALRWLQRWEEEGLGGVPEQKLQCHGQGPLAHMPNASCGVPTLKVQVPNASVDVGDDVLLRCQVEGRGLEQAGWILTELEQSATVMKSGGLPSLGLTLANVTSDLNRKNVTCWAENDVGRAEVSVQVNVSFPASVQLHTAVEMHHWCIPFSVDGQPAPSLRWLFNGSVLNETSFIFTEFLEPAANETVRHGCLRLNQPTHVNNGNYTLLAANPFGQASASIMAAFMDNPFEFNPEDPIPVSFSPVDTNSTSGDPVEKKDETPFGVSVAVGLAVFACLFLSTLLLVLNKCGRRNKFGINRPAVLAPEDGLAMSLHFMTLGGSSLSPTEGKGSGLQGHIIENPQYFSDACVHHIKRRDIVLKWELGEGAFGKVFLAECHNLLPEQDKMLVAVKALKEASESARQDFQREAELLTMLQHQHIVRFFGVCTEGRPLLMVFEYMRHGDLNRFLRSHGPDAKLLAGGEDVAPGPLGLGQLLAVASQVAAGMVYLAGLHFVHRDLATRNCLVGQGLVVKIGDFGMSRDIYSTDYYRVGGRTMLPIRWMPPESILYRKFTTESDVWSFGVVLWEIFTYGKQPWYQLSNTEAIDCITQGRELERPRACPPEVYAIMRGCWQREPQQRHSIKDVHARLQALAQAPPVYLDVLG
Sequence of Serine/threonine-protein kinase Nek7 (Homo sapiens) (Q8TDX7 whole entry, looked up): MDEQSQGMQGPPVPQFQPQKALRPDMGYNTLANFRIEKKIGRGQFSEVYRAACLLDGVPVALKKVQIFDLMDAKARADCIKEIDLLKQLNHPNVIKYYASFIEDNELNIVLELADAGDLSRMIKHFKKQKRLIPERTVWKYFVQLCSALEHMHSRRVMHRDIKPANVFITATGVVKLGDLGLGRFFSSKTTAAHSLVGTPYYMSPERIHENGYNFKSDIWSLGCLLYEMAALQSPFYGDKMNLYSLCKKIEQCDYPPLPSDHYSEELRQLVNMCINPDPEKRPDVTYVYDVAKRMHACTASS
Sequence of 5'-AMP-activated protein kinase catalytic subunit alpha-1 (Q13131 whole entry, looked up): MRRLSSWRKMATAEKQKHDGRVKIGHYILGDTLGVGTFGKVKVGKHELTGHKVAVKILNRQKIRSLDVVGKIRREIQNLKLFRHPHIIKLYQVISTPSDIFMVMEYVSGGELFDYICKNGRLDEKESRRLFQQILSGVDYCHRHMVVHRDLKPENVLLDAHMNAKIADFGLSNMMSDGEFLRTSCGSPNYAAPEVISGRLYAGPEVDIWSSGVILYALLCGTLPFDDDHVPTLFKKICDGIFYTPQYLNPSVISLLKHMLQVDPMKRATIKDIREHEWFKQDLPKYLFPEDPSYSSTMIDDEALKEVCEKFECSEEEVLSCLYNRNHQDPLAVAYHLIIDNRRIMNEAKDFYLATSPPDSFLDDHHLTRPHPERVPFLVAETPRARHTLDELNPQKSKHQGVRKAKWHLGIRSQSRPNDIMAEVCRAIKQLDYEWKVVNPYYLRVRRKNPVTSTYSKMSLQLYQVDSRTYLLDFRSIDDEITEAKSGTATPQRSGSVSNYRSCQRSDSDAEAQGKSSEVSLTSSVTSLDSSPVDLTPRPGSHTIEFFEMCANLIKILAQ
Sequence of Insulin receptor-related protein (Homo sapiens) (P14616 27-742 limits assumed): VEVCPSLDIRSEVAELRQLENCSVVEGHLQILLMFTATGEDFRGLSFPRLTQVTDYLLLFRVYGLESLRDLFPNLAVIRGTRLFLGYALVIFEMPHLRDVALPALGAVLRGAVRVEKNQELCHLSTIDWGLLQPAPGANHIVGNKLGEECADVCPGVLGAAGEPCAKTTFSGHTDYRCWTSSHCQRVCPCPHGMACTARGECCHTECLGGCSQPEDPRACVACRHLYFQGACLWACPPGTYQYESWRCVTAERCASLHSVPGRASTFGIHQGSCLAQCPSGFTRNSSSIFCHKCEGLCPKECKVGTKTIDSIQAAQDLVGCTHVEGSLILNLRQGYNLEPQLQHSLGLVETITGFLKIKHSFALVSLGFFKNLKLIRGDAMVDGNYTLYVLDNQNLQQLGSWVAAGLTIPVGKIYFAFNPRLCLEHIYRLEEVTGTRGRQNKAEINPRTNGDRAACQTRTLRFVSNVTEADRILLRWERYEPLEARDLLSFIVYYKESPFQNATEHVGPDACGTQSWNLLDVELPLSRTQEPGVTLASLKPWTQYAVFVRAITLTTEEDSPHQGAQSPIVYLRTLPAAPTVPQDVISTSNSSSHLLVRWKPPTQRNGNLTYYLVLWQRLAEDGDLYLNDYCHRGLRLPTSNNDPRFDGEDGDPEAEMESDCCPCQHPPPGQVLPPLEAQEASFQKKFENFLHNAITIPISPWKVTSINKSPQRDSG
Sequence of Insulin receptor-related protein (Homo sapiens) (P14616 747-1297 limits assumed): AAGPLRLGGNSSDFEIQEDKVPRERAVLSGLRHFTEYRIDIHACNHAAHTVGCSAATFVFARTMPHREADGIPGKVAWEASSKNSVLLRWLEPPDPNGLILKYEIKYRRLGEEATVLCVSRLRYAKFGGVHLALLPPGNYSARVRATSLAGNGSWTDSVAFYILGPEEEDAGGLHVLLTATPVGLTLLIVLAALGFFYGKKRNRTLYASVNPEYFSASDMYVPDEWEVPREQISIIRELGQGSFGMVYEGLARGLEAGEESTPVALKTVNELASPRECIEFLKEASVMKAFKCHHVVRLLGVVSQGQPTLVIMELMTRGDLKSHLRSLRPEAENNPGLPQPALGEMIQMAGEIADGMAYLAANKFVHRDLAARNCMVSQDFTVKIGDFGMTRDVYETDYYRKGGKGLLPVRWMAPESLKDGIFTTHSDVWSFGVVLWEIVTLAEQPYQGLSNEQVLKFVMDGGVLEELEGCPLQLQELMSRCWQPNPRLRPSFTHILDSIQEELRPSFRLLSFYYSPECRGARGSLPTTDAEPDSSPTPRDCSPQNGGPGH
Sequence of Serine/threonine-protein kinase MRCK beta (Homo sapiens) (Q9Y5S2 whole entry): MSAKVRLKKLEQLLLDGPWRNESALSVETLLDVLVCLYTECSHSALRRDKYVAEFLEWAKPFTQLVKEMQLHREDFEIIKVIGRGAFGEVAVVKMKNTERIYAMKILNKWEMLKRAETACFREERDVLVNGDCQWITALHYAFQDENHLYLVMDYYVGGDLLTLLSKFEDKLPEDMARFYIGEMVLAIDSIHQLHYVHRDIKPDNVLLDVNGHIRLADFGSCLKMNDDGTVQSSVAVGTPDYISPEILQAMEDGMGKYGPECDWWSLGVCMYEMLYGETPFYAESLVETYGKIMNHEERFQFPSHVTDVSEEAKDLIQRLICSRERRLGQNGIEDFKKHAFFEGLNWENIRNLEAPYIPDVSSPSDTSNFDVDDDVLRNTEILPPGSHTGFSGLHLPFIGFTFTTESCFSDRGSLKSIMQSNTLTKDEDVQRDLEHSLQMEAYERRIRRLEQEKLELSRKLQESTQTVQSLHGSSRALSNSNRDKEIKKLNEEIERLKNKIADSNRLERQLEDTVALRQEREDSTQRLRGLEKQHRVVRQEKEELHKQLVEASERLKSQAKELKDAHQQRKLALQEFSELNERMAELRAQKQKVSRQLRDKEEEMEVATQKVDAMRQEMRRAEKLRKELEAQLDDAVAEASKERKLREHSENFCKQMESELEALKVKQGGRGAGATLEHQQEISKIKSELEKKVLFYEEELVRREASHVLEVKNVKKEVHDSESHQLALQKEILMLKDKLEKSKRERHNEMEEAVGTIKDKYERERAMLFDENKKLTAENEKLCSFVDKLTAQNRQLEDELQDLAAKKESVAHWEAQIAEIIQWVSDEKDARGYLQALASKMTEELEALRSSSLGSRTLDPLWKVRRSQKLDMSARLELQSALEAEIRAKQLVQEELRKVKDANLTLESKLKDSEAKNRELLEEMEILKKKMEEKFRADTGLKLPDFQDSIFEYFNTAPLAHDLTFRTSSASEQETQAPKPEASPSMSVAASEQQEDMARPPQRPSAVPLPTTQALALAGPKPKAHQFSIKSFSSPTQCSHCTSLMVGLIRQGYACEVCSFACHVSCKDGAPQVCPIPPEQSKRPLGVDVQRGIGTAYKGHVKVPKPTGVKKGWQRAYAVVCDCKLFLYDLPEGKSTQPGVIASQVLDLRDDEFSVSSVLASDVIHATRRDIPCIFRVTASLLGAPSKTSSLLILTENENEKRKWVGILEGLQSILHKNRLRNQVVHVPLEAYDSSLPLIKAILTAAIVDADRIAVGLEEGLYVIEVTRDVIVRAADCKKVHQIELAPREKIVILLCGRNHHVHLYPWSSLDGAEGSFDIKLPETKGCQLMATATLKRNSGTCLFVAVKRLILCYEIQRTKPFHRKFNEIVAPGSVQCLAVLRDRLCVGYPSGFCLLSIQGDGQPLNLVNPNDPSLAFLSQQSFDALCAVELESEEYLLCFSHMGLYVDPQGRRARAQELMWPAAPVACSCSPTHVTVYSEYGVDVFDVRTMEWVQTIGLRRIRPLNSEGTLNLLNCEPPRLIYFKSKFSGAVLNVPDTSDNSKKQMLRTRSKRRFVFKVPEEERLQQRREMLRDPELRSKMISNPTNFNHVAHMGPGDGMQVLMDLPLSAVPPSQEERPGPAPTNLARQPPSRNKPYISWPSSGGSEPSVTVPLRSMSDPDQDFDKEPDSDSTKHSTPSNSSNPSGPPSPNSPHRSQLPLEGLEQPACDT

On to `Cn1cc(-n2cnc3c(NCc4nc5cc(Cl)c(Cl)cc5[nH]4)nc(N4CCOCC4)nc32)cn1`, for which the % of control is -3.48% in [1] and 0.348% in [2]. For the molecule `COCC(=O)NC/C=C/c1ccc2ncnc(Nc3ccc(Oc4ccc(C)nc4)c(C)c3)c2c1` [CP-724714], the % of control in assay [3] is 26%. With `N#Cc1cccc(-c2c[nH]c3ncnc(N4CCOCC4)c23)c1`, the % of inhibition in assay [4] was 27%. Take `Cc1cc([C@@H](C)Nc2ccccc2C(=O)O)c2nc(N3CCOCC3)cc(=O)n2c1` [AZD-6482]: the % of control in assay [5] and in assay [6] was 100% throughout. As for `CC[C@@H]1[C@H](F)C(=O)N[C@@H]1COc1nccc2cc(C(N)=O)c(OC)cc12` [ZIMLOVISERTIB], the % of inhibition in assay [7] was -15.1%; in assay [8] it was 8.62%. Turning to `C=CC(=O)Nc1cccc(C(=O)Nc2ccc(Nc3cc(-c4[nH]c(SC)nc4C)ccn3)cc2)c1`, the % of control in assay [9] (at 1 µM) came out at 94%; in assay [9] (at 5 µM) it was 87%. As for `Cc1cc(C)cc([C@@H]2c3cc(C)ccc3NC(=O)CN2C(=O)c2ccc(Br)s2)c1`, the % of activity was 96.7% in [10] (at 1 µM) and 91.3% in assay [10] (at 10 µM).

Regarding `Nc1cnc(N2CCc3cc(S(=O)(=O)Nc4c(F)cc(Cl)cc4F)cc(N4CCCC4=O)c32)nc1` [TP-020n], in assay [11], the % of control was found to be 100%. As for `C=CC(=O)Nc1ccc(C(=O)Nc2[nH]nc3c2CN(C(=O)N[C@H](CN(C)C)c2ccccc2)C3(C)C)cc1`, the % of engagement in [12] amounted to 3.9%.
